From US20030143645A1, “Quinone reductase 2 and aldehyde dehydrogenase as therapeutic targets” (priority 2001, published 2003)

Assays:
Type in all cases: biochemical
ALDH1 = molecular target: T1, ALDH1 (Homo sapiens, UniProt P00352); assay: ALDH1 HPLC-based activity assay (Example 2); details: physiological concentrations of NAD+
T1 construct: Purification of native ALDH1, QR2 and QR1; RBC extract was prepared as described above and applied to PQ-Sepharose; tissue Valley Biomedical (blood); host or cells: human red blood cells
T1 sequence (P00352 1-501): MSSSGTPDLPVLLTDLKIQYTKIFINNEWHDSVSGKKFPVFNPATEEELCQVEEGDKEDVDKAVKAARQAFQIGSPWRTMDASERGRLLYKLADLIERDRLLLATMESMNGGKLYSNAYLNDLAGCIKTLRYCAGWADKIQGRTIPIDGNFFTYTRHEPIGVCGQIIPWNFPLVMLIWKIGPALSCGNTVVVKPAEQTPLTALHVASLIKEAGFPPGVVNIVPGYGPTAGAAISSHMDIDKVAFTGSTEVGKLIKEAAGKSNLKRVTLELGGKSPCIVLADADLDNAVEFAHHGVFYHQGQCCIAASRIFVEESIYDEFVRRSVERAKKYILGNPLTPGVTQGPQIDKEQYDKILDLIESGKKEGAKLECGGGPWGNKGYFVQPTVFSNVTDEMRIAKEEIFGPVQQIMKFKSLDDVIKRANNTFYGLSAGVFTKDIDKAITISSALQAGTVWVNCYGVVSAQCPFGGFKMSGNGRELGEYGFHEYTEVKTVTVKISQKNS
Procedure: Purification of native ALDH1, QR2 and QR1. RBC extract was prepared as described above and applied to PQ-Sepharose equilibrated in buffer A. ALDH1 and QR2 were obtained by eluting the column with 5 mM b-NAD^+ and NMeH respectively. QR1 was purified from rabbit liver as previously described (Lind et al, Methods Enzymol. 186:287-301 (1990)). All enzymes were sequenced to confirm their identify and were >90% pure as judged by SDS-PAGE and silver staining.
ALDH1, QR2 and QR1 activity assays. ALDH1 activity was determined using an HPLC-based assay because of the co-absorbance of CQ and NADH at 340 nm. Reaction products were separated with a gradient of acetonitrile in 10 mM triethylamine acetic acid. CQ and NADH peaks were identified by their signature spectra using an online photodiode array detector. QR2 activity was assayed in triplicate with recombinant QR2 (at 96 ng/mL) by measuring the absorbance at 365 nm in a buffer containing 50 mM Tris-HCl, pH 8.5, 50 μM NMeH, 5-30 μM menadione, and 0.1% Triton X-100. […] QR2 K1 values were calculated using KinetAsyst II by fitting the experimental data to the equations of Cleland (Methods Enzymol. 63:103-138 (1979)). […] QR1 IC50 values were calculated using GraphPad Prism.
The quinolines inhibit ALDH1 and QR2. […] Because of the co-absorbance of NADH and CQ at 340 nm, an HPLC based assay was developed to determine the effects of CQ on ALDH1 activity.

QR2 [1] = molecular target: T2, QR2 (Homo sapiens, UniProt P16083); assay: QR2 activity assay with recombinant QR2 (Example 2); set-up: GST (N, cleaved yes); made in house; E. coli only by inference; details: recombinant QR2; 50 μM NMeH, 5-30 μM menadione; read-out: QR2 K1 (μM) ± SEM
T2 sequence (P16083 1-231): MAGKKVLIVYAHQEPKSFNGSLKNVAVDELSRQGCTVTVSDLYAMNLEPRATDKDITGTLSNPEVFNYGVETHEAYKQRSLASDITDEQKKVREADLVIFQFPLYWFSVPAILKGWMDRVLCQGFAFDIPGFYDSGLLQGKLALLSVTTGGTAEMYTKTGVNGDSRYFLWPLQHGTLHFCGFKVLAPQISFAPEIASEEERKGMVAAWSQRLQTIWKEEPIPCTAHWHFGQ
Procedure: Cloning of human QR2. Human QR2 was PCR amplified from human liver cDNA (Clontech) with the following primers: 5′[…]-3′ and 5′-[…]-3′ and cloned into the pGEX-4T-2 GST expression vector (Pharmacia). GST-tagged QR2 was purified and the GST tag removed according to the manufacturers instructions.
ALDH1, QR2 and QR1 activity assays. […] Reaction products were separated with a gradient of acetonitrile in 10 mM triethylamine acetic acid. […] QR1 IC50 values were calculated using GraphPad Prism.

QR2 [2] = molecular target: T2, QR2; assay: hQR2 activity assay, enzyme purified from human RBC (Example 1); set-up: Pure hALDH was eluted with 5 mM NADH and pure hQR2 with 5 mM NMeN; tissue Valley Biomedical (blood); host or cells: human red blood cells; details: purified hQR2 from human RBC; menadione substrate; read-out: Kd(app)
Procedure: ATP-affinity array chromatography. In whole mouse experiments, the animal (except for its tail, feet, skin and intestines) was frozen in liquid N2 and blended in buffer A containing 50 mM Hepes, pH 7.5, 50 mM NaCl, 10 mM MgCl2, 0.1% NONIDET- P40, 1 mM dithiothreitol, 1 μg/ml leupeptin, 100 μg/ml pefabloc and 10 μg/ml aprotinin. Mouse lysate was clarified by centrifugation for 1 hr at 100,000×g. For infected and non-infected RBC's˜1.5×10^9 cells were mixed with an equal volume of 2×buffer A, rocked for 30 min at 4° C., and clarified by centrifugation for 1 hr at 100,000×g. Supernatants were dialyzed overnight against 50 mM Hepes, pH 7.5, 50 mM NaCl, 10 mM MgCl2 and 1 mM dithiothreitol. […] Lysates were centrifuged twice at 125,000×g for 1 hr at 4° C. […] Pure hALDH was eluted with 5 mM NADH and pure hQR2 with 5 mM NMeN. The eluants were dialyzed overnight at 4° C. against 25 mM Tris pH 8.0 and 1 mM DTT. hALDHl was assayed as described in Table 2. Purified hQR2 was assayed at 22° C. in 100 μM N-methyldihydronicotinamide, 30 μM menadione, 0.1% Triton X-100, 50 mM Tris pH 8.5, 100 μM dicoumarol (unless stated otherwise).
For QR2 Kd apparent values determined using the expression [formula]
The Kd was determined as [formula]
Where Ao=rate in the absence of drug; Aapp=rate+drug; [M]=concentration of menadione.

CCN(CC)CCCC(C)Nc1ccnc2cc(Cl)ccc12 (stereo not drawn) [CQ, chloroquine]
IC50 (ALDH1): 500 µM
Ki (QR2 [1]): 0.61 ± 0.1 µM
Kd (QR2 [2]): 24 µM
